According to patent publication US20230183292A1, “IMMUNOMODULATORS” (priority 2020, published 2023):
Where two headings read alike, the source gives them in different places. Starred links: 1 amine or outer side, 2 acyl side, 3 side chain; linkers in the order of their positions; H or OH if unused. Positions of bridges follow the written chain, without caps; N, C: chain ends. Non-standard residues stand in square brackets, D forms with d. Residues, ends and D or L forms follow the SMILES beside them. *: point of attachment. Dehydrocholoyl = C[C@H](CCC(=O)*)[C@H]1CC[C@H]2[C@@H]3C(=O)C[C@@H]4CC(=O)CC[C@]4(C)[C@H]3CC(=O)[C@]12C; X35 = O=C(Cn1cc(C[C@H](N[*:1])C(=O)[*:2])c2ccccc21)NCC(F)(F)F; X27 = O=C(Cn1cc(C[C@H](N[*:1])C(=O)[*:2])c2ccccc21)Oc1ccccc1; X4 = O=C(Cn1cc(C[C@H](N[*:1])C(=O)[*:2])c2ccccc21)OCCOCCO; X1 = NCCNC(=O)Cn1cc(C[C@H](N[*:1])C(=O)[*:2])c2ccccc21; Hyp = O=C(O)[C@@H]1C[C@@H](O)CN1; NMeNle = CCCC[C@H](NC)C(=O)O; NMeA = CN[C@@H](C)C(=O)O; Dab = NCC[C@H](N)C(=O)O; Dap = NC[C@H](N)C(=O)O

Target: T1, PD-1/PD-L1 (Homo sapiens, UniProt Q9NZQ7)
T1 construct: TVMV protease site (C); made in house; host or cells: HEK293T cells
Assay: PD-1/PD-L1 Homogenous Time-Resolved Fluorescence (HTRF) binding assay
Conditions: PD-1-Ig 20 nM
Method in brief: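 Inhibitors pre-incubated 15 min with PD-L1-His (10 nM final) in dPBS, 0.1% BSA, 0.05% Tween-20, then 15 min with PD-1-Ig (20 nM final). Eu-cryptate anti-Ig (1 nM) and APC anti-His (20 nM) added, 30 min equilibration; HTRF 665/620 nm ratio. Human ECD proteins from HEK293T.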

[1] = PD-L1-His 10 nM, read-out: HTRF IC50

T1 sequence (Q9NZQ7 18-239): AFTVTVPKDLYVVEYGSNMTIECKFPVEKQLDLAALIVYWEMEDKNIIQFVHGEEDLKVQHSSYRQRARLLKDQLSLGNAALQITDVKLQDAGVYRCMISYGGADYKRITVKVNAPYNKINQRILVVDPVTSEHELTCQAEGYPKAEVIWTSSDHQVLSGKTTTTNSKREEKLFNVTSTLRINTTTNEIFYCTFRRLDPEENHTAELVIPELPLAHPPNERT

| Compound | IC50 [1] | IC50 (HTRF IC50, PD-L1-His 10 nM) |
| --- | --- | --- |
| CCCC[C@H]1C(=O)N(C)[C@@H](CCCC)C(=O)N[C@@H](CC(C)C)C(=O)N[C@H](C(=O)NCC(N)=O)CSCC(=O)N[C@@H](Cc2ccc(O)cc2)C(=O)N(C)[C@@H](C)C(=O)N[C@@H](CC(N)=O)C(=O)N2CCC[C@H]2CN[C@@H](CNC(=O)CC[C@@H](C)[C@H]2CC[C@H]3[C@@H]4[C@H](O)C[C@@H]5C[C@H](O)CC[C@]5(C)[C@H]4C[C@H](O)[C@]23C)C(=O)N[C@@H](CC(C)C)C(=O)N2C[C@H](O)C[C@H]2C(=O)N[C@@H](Cc2c[nH]c3ccccc23)C(=O)N[C@@H](CCNC(=O)CC[C@@H](C)[C@H]2CC[C@H]3[C@@H]4[C@H](O)C[C@@H]5C[C@H](O)CC[C@]5(C)[C@H]4C[C@H](O)[C@]23C)C(=O)N[C@@H](Cc2cn(CC(=O)NC3CC3)c3ccccc23)C(=O)N1C [Example 2009] | 2900 nM |  |
| CCCC[C@H]1C(=O)N(C)[C@@H](CCCC)C(=O)N[C@@H](CC(C)C)C(=O)N[C@H](C(=O)NCC(N)=O)CSCC(=O)N[C@@H](Cc2ccc(O)cc2)C(=O)N(C)[C@@H](C)C(=O)N[C@@H](CC(N)=O)C(=O)N2CCC[C@H]2CN[C@@H](CNC(=O)CC[C@@H](C)[C@H]2CC[C@H]3[C@@H]4[C@H](O)C[C@@H]5C[C@H](O)CC[C@]5(C)[C@H]4C[C@H](O)[C@]23C)C(=O)N[C@@H](CC(C)C)C(=O)N2C[C@H](O)C[C@H]2C(=O)N[C@@H](Cc2c[nH]c3ccccc23)C(=O)N[C@@H](CCNC(=O)CC[C@@H](C)[C@H]2CC[C@H]3[C@@H]4[C@H](O)C[C@@H]5C[C@H](O)CC[C@]5(C)[C@H]4C[C@H](O)[C@]23C)C(=O)N[C@@H](Cc2cn(CC(=O)NCC(F)(F)F)c3ccccc23)C(=O)N1C [Example 2010] | 4700 nM |  |
| CCCC[C@H]1C(=O)N(C)[C@@H](CCCC)C(=O)N[C@@H](CC(C)C)C(=O)N[C@H](C(=O)NCC(N)=O)CSCC(=O)N[C@@H](Cc2ccc(O)cc2)C(=O)N(C)[C@@H](C)C(=O)N[C@@H](CC(N)=O)C(=O)N2CCC[C@H]2CN[C@@H](CNC(=O)CC[C@@H](C)[C@H]2CC[C@H]3[C@@H]4C(=O)C[C@@H]5CC(=O)CC[C@]5(C)[C@H]4CC(=O)[C@]23C)C(=O)N[C@@H](CC(C)C)C(=O)N2C[C@H](O)C[C@H]2C(=O)N[C@@H](Cc2c[nH]c3ccccc23)C(=O)N[C@@H](CCNC(=O)CC[C@@H](C)[C@H]2CC[C@H]3[C@@H]4C(=O)C[C@@H]5CC(=O)CC[C@]5(C)[C@H]4CC(=O)[C@]23C)C(=O)N[C@@H](Cc2cn(CC(=O)OC3CC3)c3ccccc23)C(=O)N1C [Example 2011] | 35 nM |  |
| CCCC[C@H]1C(=O)N(C)[C@@H](CCCC)C(=O)N[C@@H](CC(C)C)C(=O)N[C@H](C(=O)NCC(N)=O)CSCC(=O)N[C@@H](Cc2ccc(O)cc2)C(=O)N(C)[C@@H](C)C(=O)N[C@@H](CC(N)=O)C(=O)N2CCC[C@H]2CN[C@@H](CNC(=O)CC[C@@H](C)[C@H]2CC[C@H]3[C@@H]4C(=O)C[C@@H]5CC(=O)CC[C@]5(C)[C@H]4CC(=O)[C@]23C)C(=O)N[C@@H](CC(C)C)C(=O)N2C[C@H](O)C[C@H]2C(=O)N[C@@H](Cc2c[nH]c3ccccc23)C(=O)N[C@@H](CCNC(=O)CC[C@@H](C)[C@H]2CC[C@H]3[C@@H]4C(=O)C[C@@H]5CC(=O)CC[C@]5(C)[C@H]4CC(=O)[C@]23C)C(=O)N[C@@H](Cc2cn(CC(=O)OC3CC3)c3ccccc23)C(=O)N1C [Example 2012] | 27 nM |  |
| CCCCOC(=O)Cn1cc(C[C@@H]2NC(=O)[C@H](CCNC(=O)CC[C@@H](C)[C@H]3CC[C@H]4[C@@H]5C(=O)C[C@@H]6CC(=O)CC[C@]6(C)[C@H]5CC(=O)[C@]34C)NC(=O)[C@H](Cc3c[nH]c4ccccc34)NC(=O)[C@@H]3C[C@@H](O)CN3C(=O)[C@H](CC(C)C)NC(=O)[C@H](CNC(=O)CC[C@@H](C)[C@H]3CC[C@H]4[C@@H]5C(=O)C[C@@H]6CC(=O)CC[C@]6(C)[C@H]5CC(=O)[C@]34C)NC[C@@H]3CCCN3C(=O)[C@H](CC(N)=O)NC(=O)[C@H](C)N(C)C(=O)[C@H](Cc3ccc(O)cc3)NC(=O)CSC[C@@H](C(=O)NCC(N)=O)NC(=O)[C@H](CC(C)C)NC(=O)[C@H](CCCC)N(C)C(=O)[C@H](CCCC)N(C)C2=O)c2ccccc21 [Example 2013] | 41 nM |  |
| CCCCCCOC(=O)Cn1cc(C[C@@H]2NC(=O)[C@H](CCNC(=O)CC[C@@H](C)[C@H]3CC[C@H]4[C@@H]5C(=O)C[C@@H]6CC(=O)CC[C@]6(C)[C@H]5CC(=O)[C@]34C)NC(=O)[C@H](Cc3c[nH]c4ccccc34)NC(=O)[C@@H]3C[C@@H](O)CN3C(=O)[C@H](CC(C)C)NC(=O)[C@H](CNC(=O)CC[C@@H](C)[C@H]3CC[C@H]4[C@@H]5C(=O)C[C@@H]6CC(=O)CC[C@]6(C)[C@H]5CC(=O)[C@]34C)NC[C@@H]3CCCN3C(=O)[C@H](CC(N)=O)NC(=O)[C@H](C)N(C)C(=O)[C@H](Cc3ccc(O)cc3)NC(=O)CSC[C@@H](C(=O)NCC(N)=O)NC(=O)[C@H](CC(C)C)NC(=O)[C@H](CCCC)N(C)C(=O)[C@H](CCCC)N(C)C2=O)c2ccccc21 [Example 2014] | 4600 nM |  |
| CCCC[C@H]1C(=O)N(C)[C@@H](CCCC)C(=O)N[C@@H](CC(C)C)C(=O)N[C@H](C(=O)NCC(N)=O)CSCC(=O)N[C@@H](Cc2ccc(O)cc2)C(=O)N(C)[C@@H](C)C(=O)N[C@@H](CC(N)=O)C(=O)N2CCC[C@H]2C(=O)N[C@@H](CNC(=O)CC[C@@H](C)[C@H]2CC[C@H]3[C@@H]4C(=O)C[C@@H]5CC(=O)CC[C@]5(C)[C@H]4CC(=O)[C@]23C)C(=O)N[C@@H](CC(C)C)C(=O)N2C[C@H](O)C[C@H]2C(=O)N[C@@H](Cc2c[nH]c3ccccc23)C(=O)N[C@@H](CCNC(=O)CC[C@@H](C)[C@H]2CC[C@H]3[C@@H]4C(=O)C[C@@H]5CC(=O)CC[C@]5(C)[C@H]4CC(=O)[C@]23C)C(=O)N[C@@H](Cc2cn(CC(=O)Oc3ccccc3)c3ccccc23)C(=O)N1C [Example 2015] ({CH2CO}-Y[NMeA]NP[Dap](Dehydrocholoyl)L[Hyp]W[Dab](Dehydrocholoyl)[X27][NMeNle][NMeNle]LCG-NH2; thioether N-14) |  | 20 nM |
| CCCC[C@H]1C(=O)N(C)[C@@H](CCCC)C(=O)N[C@@H](CC(C)C)C(=O)N[C@H](C(=O)NCC(N)=O)CSCC(=O)N[C@@H](Cc2ccc(O)cc2)C(=O)N(C)[C@@H](C)C(=O)N[C@@H](CC(N)=O)C(=O)N2CCC[C@H]2C(=O)N[C@@H](CNC(=O)CC[C@@H](C)[C@H]2CC[C@H]3[C@@H]4C(=O)C[C@@H]5CC(=O)CC[C@]5(C)[C@H]4CC(=O)[C@]23C)C(=O)N[C@@H](CC(C)C)C(=O)N2C[C@H](O)C[C@H]2C(=O)N[C@@H](Cc2c[nH]c3ccccc23)C(=O)N[C@@H](CCNC(=O)CC[C@@H](C)[C@H]2CC[C@H]3[C@@H]4C(=O)C[C@@H]5CC(=O)CC[C@]5(C)[C@H]4CC(=O)[C@]23C)C(=O)N[C@@H](Cc2cn(CC(=O)OCCOCCO)c3ccccc23)C(=O)N1C [Example 2016] ({CH2CO}-Y[NMeA]NP[Dap](Dehydrocholoyl)L[Hyp]W[Dab](Dehydrocholoyl)[X4][NMeNle][NMeNle]LCG-NH2; thioether N-14) | 15 nM |  |
| CCCC[C@H]1C(=O)N(C)[C@@H](CCCC)C(=O)N[C@@H](CC(C)C)C(=O)N[C@H](C(=O)NCC(N)=O)CSCC(=O)N[C@@H](Cc2ccc(O)cc2)C(=O)N(C)[C@@H](C)C(=O)N[C@@H](CC(N)=O)C(=O)N2CCC[C@H]2C(=O)N[C@@H](CNC(=O)CC[C@@H](C)[C@H]2CC[C@H]3[C@@H]4C(=O)C[C@@H]5CC(=O)CC[C@]5(C)[C@H]4CC(=O)[C@]23C)C(=O)N[C@@H](CC(C)C)C(=O)N2C[C@H](O)C[C@H]2C(=O)N[C@@H](Cc2c[nH]c3ccccc23)C(=O)N[C@@H](CCNC(=O)CC[C@@H](C)[C@H]2CC[C@H]3[C@@H]4C(=O)C[C@@H]5CC(=O)CC[C@]5(C)[C@H]4CC(=O)[C@]23C)C(=O)N[C@@H](Cc2cn(CC(=O)NCC(F)(F)F)c3ccccc23)C(=O)N1C [Example 2018] ({CH2CO}-Y[NMeA]NP[Dap](Dehydrocholoyl)L[Hyp]W[Dab](Dehydrocholoyl)[X35][NMeNle][NMeNle]LCG-NH2; thioether N-14) | 17 nM |  |
| CCCC[C@H]1C(=O)N(C)[C@@H](CCCC)C(=O)N[C@@H](CC(C)C)C(=O)N[C@H](C(=O)NCC(N)=O)CSCC(=O)N[C@@H](Cc2ccc(O)cc2)C(=O)N(C)[C@@H](C)C(=O)N[C@@H](CC(N)=O)C(=O)N2CCC[C@H]2C(=O)N[C@@H](CNC(=O)CC[C@@H](C)[C@H]2CC[C@H]3[C@@H]4C(=O)C[C@@H]5CC(=O)CC[C@]5(C)[C@H]4CC(=O)[C@]23C)C(=O)N[C@@H](CC(C)C)C(=O)N2C[C@H](O)C[C@H]2C(=O)N[C@@H](Cc2c[nH]c3ccccc23)C(=O)N[C@@H](CCNC(=O)CC[C@@H](C)[C@H]2CC[C@H]3[C@@H]4C(=O)C[C@@H]5CC(=O)CC[C@]5(C)[C@H]4CC(=O)[C@]23C)C(=O)N[C@@H](Cc2cn(CC(=O)NCCN)c3ccccc23)C(=O)N1C [Example 2019] ({CH2CO}-Y[NMeA]NP[Dap](Dehydrocholoyl)L[Hyp]W[Dab](Dehydrocholoyl)[X1][NMeNle][NMeNle]LCG-NH2; thioether N-14) | 19 nM |  |
